The first assay has as its target T1, human mGluR2 receptor (Homo sapiens, UniProt Q14416).
T1 construct: expressed in transfected cells
Put plainly: [35S]-GTPγS binding assay of mGluR2 receptor activation. The assay is classed as biochemical.
Conditions: not given
On the procedure: A [^35S]-GTPγS binding assay was used to functionally assay mGluR2 receptor activation. The allosteric activator activity of compounds at the human mGluR2 receptor were measured using a [^35S]-GTPγS binding assay with membranes prepared from CHO cells which stably express the human mGluR2. The assay is based upon the principle that agonists bind to G-protein coupled receptors to stimulate GDP-GTP exchange at the G-protein. Since [^35S]-GTPγS is a non-hydrolyzable GTP analog, it can be used to provide an index of GDP-GTP exchange and, thus, receptor activation. The GTPγS binding assay therefore provides a quantitative measure of receptor activation.
Membranes were prepared from CHO cells stably transfected with human mGluR2. Membranes (30 μg protein) were incubated with test compound (3 nM to 300 μM) for 15 minutes at room temperature prior to the addition of 1 μM glutamate, and incubated for 30 min at 30° C. in 500 μl assay buffer (20 mM HEPES, 100 mM NaCl, 10 mM MgCl2), containing 30 μM GDP and 0.1 nM [^35S]-GTPγS (1250 Ci/mmol). Reactions were carried out in triplicate in 2 ml polypropylene 96-well plates. Reactions were terminated by vacuum filtration using a Packard 96-well harvester and Unifilter-96, GF/B filter microplates. The filter plates were washed 4×1.5 ml with ice-cold wash buffer (10 mM sodium phosphate buffer, pH 7.4). The filter plates were dried and 35 μl of scintillation fluid (Microscint 20) was added to each well. The amount of radioactivity bound was determined by counting plates on the Packard TopCount. Data was analyzed using GraphPad Prism, and EC50 and Emax values (relative to the maximum glutamate effect) were calculated using non-linear regression.
A general note: GTPγS resists hydrolysis and so accumulates on activated G proteins.
T1 sequence (Q14416 19-872): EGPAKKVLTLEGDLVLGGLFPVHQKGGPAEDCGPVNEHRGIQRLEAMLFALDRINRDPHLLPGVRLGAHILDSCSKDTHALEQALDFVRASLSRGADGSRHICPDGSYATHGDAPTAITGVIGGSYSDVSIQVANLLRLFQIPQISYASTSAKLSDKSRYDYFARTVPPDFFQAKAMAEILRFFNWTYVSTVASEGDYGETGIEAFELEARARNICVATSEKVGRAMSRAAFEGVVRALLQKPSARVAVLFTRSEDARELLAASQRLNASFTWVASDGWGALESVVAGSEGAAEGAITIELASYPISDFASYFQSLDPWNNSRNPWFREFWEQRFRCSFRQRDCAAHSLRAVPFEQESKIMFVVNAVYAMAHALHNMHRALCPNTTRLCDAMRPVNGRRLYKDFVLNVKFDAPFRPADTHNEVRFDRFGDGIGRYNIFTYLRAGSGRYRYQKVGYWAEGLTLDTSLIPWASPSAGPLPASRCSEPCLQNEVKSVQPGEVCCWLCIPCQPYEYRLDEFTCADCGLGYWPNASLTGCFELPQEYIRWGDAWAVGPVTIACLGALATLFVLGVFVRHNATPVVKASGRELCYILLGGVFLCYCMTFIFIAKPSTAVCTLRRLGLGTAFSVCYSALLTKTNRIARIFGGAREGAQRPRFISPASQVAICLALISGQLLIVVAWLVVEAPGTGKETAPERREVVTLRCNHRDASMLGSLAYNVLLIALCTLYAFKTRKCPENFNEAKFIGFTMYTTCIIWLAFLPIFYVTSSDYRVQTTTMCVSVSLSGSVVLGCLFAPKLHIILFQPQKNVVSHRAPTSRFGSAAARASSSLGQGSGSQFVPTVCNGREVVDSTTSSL
As to `Cc1cc(CC2CCN(Cc3ccncc3)CC2)cc2c1C(=O)N(Cc1ccc(OC(F)(F)F)cc1)C2` [Example 170, 7-methyl-5-(1-pyridin-4-ylmethyl-piperidin-4-ylmethyl)-2-(4-trifluorometh-oxy-benzyl)-2,3-dihydro-isoindol-1-one], the EC50 (in general, the concentration that produces a half-maximal response) came to 80 nM.
On the same count and under the same terms, the result for `CNCc1noc(-c2cc(C)c3c(c2)CN(Cc2ccc(OC(F)(F)F)cc2)C3=O)n1` [Example 179, 7-Methyl-5-(3-methylamino-methyl-[1,2,4]oxadiazol-5-yl)-2-(4-trifluorometh-oxy-benzyl)-2,3-dihydro-isoindol-1-one] reads 470 nM.
As for `Cc1cc(CC2CCN(Cc3cccnc3)CC2)cc2c1C(=O)N(Cc1ccc(OC(F)(F)F)cc1)C2` [Example 169, 7-methyl-5-(1-pyridin-3-ylmethyl-piperidin-4-ylmethyl)-2-(4-trifluorometh-oxy-benzyl)-2,3-dihydro-isoindol-1-one], the EC50 was 140 nM.
`Cc1cc(CC2CCN(C3CCCC3)CC2)cc2c1C(=O)N(Cc1ccc(OC(F)(F)F)cc1)C2` [Example 173, 5-(1-cyclopentyl-piperidin-4-ylmethyl)-7-methyl-2-(4-trifluorometh-oxy-benzyl)-2,3-dihydro-isoindol-1-one] gave an EC50 of 820 nM.
The same measure, in the same setting: the same measure for `Cc1cc(-c2nc(CN3CCOCC3)no2)cc2c1C(=O)N(Cc1ccc(OC(F)(F)F)cc1)C2` [Example 178, 7-Methyl-5-(3-morpholin-4-ylmethyl-[1,2,4]oxadiazol-5-yl)-2-(4-trifluorometh-oxy-benzyl)-2,3-dihydro-isoindol-1-one]: 110 nM.

The same assay, now with this note: membranes from CHO cells stably expressing human mGluR2; 1 μM glutamate.
`COCCN1CCN(c2ccc3c(c2)CN(Cc2ccc(OC(F)(F)F)cc2)C3=O)CC1` [Example 147, 5-[4-(2-Methoxy-ethyl)-piperazin-1-yl]-2-(4-trifluoromethoxy-benzyl)-2,3-dihydro-isoindol-1-one]: the EC50 amounted to 6570 nM.
Same read-out and setting: the result for `COc1cc(-c2cccnc2)cc2c1C(=O)N(Cc1ccc(Cl)cc1)C2` [Example 101, 2-(4-Chloro-benzyl)-7-methoxy-5-pyridin-3-yl-2,3-dihydro-isoindol-1-one] reads 1160 nM.
Same read-out and setting: the same measure for `Cc1cc(-c2cccnc2)cc2c1C(=O)N(Cc1ccc(Cl)cc1)C2` [Example 98, 2-(4-chlorobenzyl)-7-methyl-5-pyridin-3-yl-2,3-dihydroisoindol-1-one]: 100 nM.
Still for that read-out and setting: the same measure for `Cc1cc(C2CCNCC2)cc2c1C(=O)N(Cc1ccc(OC(F)(F)F)cc1)C2` [Example 158, 7-Methyl-5-piperidin-4-yl-2-(4-trifluoromethoxy-benzyl)-2,3-dihydro-isoindol-1-one]: 2020 nM; for `Cc1cc(N2CCN(CC3CCCN(C)C3)CC2)cc2c1C(=O)N(Cc1ccc(OC(F)(F)F)cc1)C2` (centres unmarked) [Example 139, 7-Methyl-5-[4-(1-methyl-piperidin-3-ylmethyl)-piperazin-1-yl]-2-(4-tri-fluoromethoxy-benzyl)-2,3-dihydro-isoindol-1-one]: 1050 nM; for `Cc1cc(CNCCc2ccccc2)cc2c1C(=O)N(Cc1ccc(OC(F)(F)F)cc1)C2` [Example 46, 7-Methyl-5-(phenethylamino-methyl)-2-(4-trifluoromethoxy-benzyl)-2,3-dihydro-isoindol-1-one]: 630 nM.
In the case of `O=C1c2c(Cl)cc(-c3cccnc3)cc2CN1Cc1ccc(Cl)cc1` [Example 107, 7-Chloro-2-(4-chloro-benzyl)-5-pyridin-3-yl-2,3-dihydro-isoindol-1-one], the EC50 stood at 360 nM.
Still for that read-out and setting: the same measure for `O=C1c2c(Cl)cc(-c3ccncc3)cc2CN1Cc1ccc(OC(F)(F)F)cc1` [Example 102, 7-Chloro-5-pyridin-4-yl-2-(4-trifluoromethoxy-benzyl)-2,3-dihydro-isoindol-1-one]: 90 nM.
The same measure, in the same setting: the result for `Cc1cc(CNCc2cccnc2)cc2c1C(=O)N(Cc1ccc(OC(F)(F)F)cc1)C2` [Example 41, 7-Methyl-5-{[(pyridine-3-ylmethyl)-amino]-methyl}-2-(4-trifluoromethoxy-benzyl)-2,3-dihydro-isoindol-1-one] reads 910 nM.
Same read-out and setting: the same measure for `O=C1c2ccc(N3CCC4(CC3)C(=O)N(Cc3ccc(F)cc3)CN4c3ccccc3)cc2CN1Cc1ccc(OC(F)(F)F)cc1` [Example 153, 3-(4-Fluoro-benzyl)-8-[1-oxo-2-(4-trifluoromethoxy-benzyl)-2,3-dihydro-1H-isoindol-5-yl]-1-phenyl-1,3,8-triaza-spiro[4.5] decan-4-one]: 2640 nM; for `O=C(CN1CCN(c2ccc3c(c2)CN(Cc2ccc(OC(F)(F)F)cc2)C3=O)CC1)N1CCCC1` [Example 148, 5-[4-(2-Oxo-2-pyrrolidin-1-yl-ethyl)-piperazin-1-yl]-2-(4-trifluoromethoxy-benzyl)-2,3-dihydro-isoindol-1-one]: 6780 nM; for `Cc1cc(C(=O)N2CCN(Cc3ccncc3)CC2)cc2c1C(=O)N(Cc1ccc(OC(F)(F)F)cc1)C2` [Example 162, 7-Methyl-5-(4-pyridin-4-ylmethyl-piperazine-1-carbonyl)-2-(4-trifluoromethoxy-benzyl)-2,3-dihydro-isoindol-1-one]: 550 nM.
The compound `Cc1cc(N2CCNCC2)cc2c1C(=O)N(Cc1ccc(OC(F)(F)F)cc1)C2` [Example 123, 7-Methyl-5-piperazin-1-yl-2-(4-trifluoromethoxy-benzyl)-2,3-dihydroisoindol-1-one] returned an EC50 of 3850 nM.
On the same count and under the same terms, the result for `Cc1cc(-c2cccnc2)cc2c1C(=O)N(Cc1ccc(Oc3ccccc3)cc1)C2` [Example 104, 7-Methyl-2-(4-phenoxy-benzyl)-5-pyridin-3-yl-2,3-dihydro-isoindol-1-one] reads 50 nM; that for `O=C1c2ccc(N3CCOCC3)cc2CN1Cc1ccc(OC(F)(F)F)cc1` [Example 150, 5-Morpholin-4-yl-2-(4-trifluoromethoxy-benzyl)-2,3-dihydro-isoindol-1-one], 8760 nM.
Still for that read-out and setting: the result for `Cc1cc(N2CCN(C)CC2)cc2c1C(=O)N(Cc1ccc(Oc3ccccc3)cc1)C2` [Example 114, 7-Methyl-5-(4-methylpiperazin-1-yl)-2-(4-phenoxybenzyl)-2,3-dihydroisoindol-1-one] reads 280 nM; that for `Cc1cc(C2CCN(C)CC2)cc2c1C(=O)N(Cc1ccc(OC(F)(F)F)cc1)C2` [Example 159, 7-Methyl-5-(1-methyl-piperidin-4-yl)-2-(4-trifluoromethoxy-benzyl)-2,3-dihydro-isoindol-1-one], 1280 nM.
On to `CN1CCN(c2cc(Cl)c3c(c2)CN(Cc2ccc(OC(F)(F)F)cc2)C3=O)CC1` [Example 131, 7-Chloro-5-(4-methyl-piperizin-1-yl)-2-(4-trifluoromethoxy-benzyl)-2,3-dihydro-isoindol-1-one], for which the response was half-maximal at 610 nM (EC50).
Compound `COc1cc(-c2ccncc2)cc2c1C(=O)N(Cc1ccc(OC(F)(F)F)cc1)C2` [Example 99, 7-Methoxy-5-pyridin-4-yl-2-(4-trifluoromethoxy-benzyl)-2,3-dihydroisoindol-1-one] returned an EC50 of 400 nM.
Still for that read-out and setting: the result for `Cc1cc(N2CCN(C)CC2)cc2c1C(=O)N(Cc1ccc(Cl)cc1)C2` [Example 117, 2-(4-chlorobenzyl)-7-methyl-5-(4-methylpiperazin-1-yl)-2,3-di-hydroisoindol-1-one] reads 1450 nM; that for `CCN1CCN(c2cc(C)c3c(c2)CN(Cc2ccc(OC(F)(F)F)cc2)C3=O)CC1` [Example 112, 5-(4-Ethylpiperazin-1-yl)-7-methyl-2-(4-trifluoromethoxy-benzyl)-2,3-dihydroisoindol-1-one], 680 nM.
Consider `Cc1cc(-c2ccncc2)cc2c1C(=O)N(Cc1ccc(Oc3ccccc3)cc1)C2` [Example 103, 7-Methyl-2-(4-phenoxy-benzyl)-5-pyridin-4-yl-2,3-dihydro-isoindol-1-one], for which the EC50 was 40 nM.
Still for that read-out and setting: the result for `Cc1cc(Br)cc2c1C(=O)N(Cc1ccc(OC(F)(F)F)cc1)C2` [Example 30, 5-Bromo-7-methyl-2-(4-trifluoromethoxy-benzyl)-2,3-dihydro-isoindol-1-one] reads 370 nM; that for `Cc1cc(CN2CCC(N3CCCCC3)CC2)cc2c1C(=O)N(Cc1ccc(OC(F)(F)F)cc1)C2` [Example 49, 5-[1, 4″]Bipiperidinyl-1″-ylmethyl-7-methyl-2-(4-trifluoromethoxy-benzyl)-2,3-dihydro-isoindol-1-one], 3250 nM.
Still for that read-out and setting: the same measure for `O=C1c2ccc(N3CCC(CCCc4ccccc4)CC3)cc2CN1Cc1ccc(OC(F)(F)F)cc1` [Example 152, 5-[4-(3-Phenyl-propyl)-piperidin-1-yl]-2-(4-trifluoromethoxy-benzyl)-2,3-dihydro-isoindol-1-one]: 510 nM; for `CN(C)[C@H]1CCN(c2cc(Cl)c3c(c2)CN(Cc2ccc(OC(F)(F)F)cc2)C3=O)C1` (stereo in doubt) [Example 144, 7-Chloro-5-(3-dimethylamino-pyrrolidin-1-yl)-2-(4-trifluoromethoxy-benzyl)-2,3-dihydro-isoindol-1-one]: 310 nM; for `Cc1cc(N2CCN3CCCC3C2)cc2c1C(=O)N(Cc1ccc(Oc3ccccc3)cc1)C2` (centres unmarked) [Example 116, 5-(Hexahydro-pyrrolo[1,2-a]pyrazin-2-yl)-7-methyl-2-(4-phenoxybenzyl)-2,3-dihydroisoindol-1-one]: 180 nM.

Source of the values: US7968570B2, “Isoindolone compounds and their use as metabotropic glutamate receptor potentiators” (AstraZeneca AB, priority 2004, dated 2011).
